# Measured values published in patent US10077288B2, “Hydroxystatin derivatives for the treatment of arthrosis” (Merck Patent GmbH, priority 2012, dated 2018).
# Key:
# [1] = test system: bovine explants (cartilage degradation, liberation of GAG); test: Cartilage explant assay: pH-induced cartilage degradation, GAG release; format: cell-based; details: Bos taurus, 72 h, pH 5.5, 3 days
# From the text: EXAMPLE 5: CARTILAGE EXPLANT ASSAY
# In order to investigate the effect of potential cathepsin D inhibitors on cartilage degradation, a pH-induced model based on bovine explants is used. The pH of the medium in which the explants are cultivated is matched here to the pathophysiological pH of an arthrotic knee. This pH is pH 5.5. In this ex vivo model, potential cathepsin D inhibitors are subsequently investigated for their action with respect to stopping of the cartilage degradation process. If the cartilage is destroyed, glycosaminoglycans (GAGs) are released into the cell culture supernatant. The amount of GAGs liberated can be determined quantitatively with the aid of DMMB (dimethylmethylene blue hydrochloride). If sulfated GAGs are detected using dimethylmethylene blue hydrochloride, the decrease in the absorption at 633 nm is utilised. […] In order to determine the concentration, a calibration line is also recorded using chondroitin sulfate.
# 1.) Procedure: pH-Induced Cartilage Degradation of Bovine Explants
# The bovine explants are firstly prepared. The induction of the cartilage degradation is carried out in 96-multiwell plates. One explant is cultivated per well. In each case, 200 μl of DMEM (incubation medium pH 5.5) without FBS+30 μg/ml of ascorbic acid are added. Thus negative control, explants (n=4) are incubated at pH 7.4 (without FBS). This control is not included in the calculation of the data, but instead ensures that the pH change has the desired effect on the liberation of GAG. At this point, the substances to be tested are added. No pre-incubation of the explants is carried out. The explants are cultivated with the corresponding substances for 3 days in the incubator at 37° C. and 7.5% CO2.
# In order to investigate the effect of cathepsin D inhibitors on the liberation of GAG (glycosaminoglycan), the substances are employed in the desired concentration and cultivated for 3 days. The compounds to be tested are tested in a first experiment in a concentration of 1 μM and 1% of DMSO. Substances which have an effect of >50% on the liberation of GAG (this corresponds to <50% of the control in the Assay Explorer) are tested in the next experiment at 100 nM and 1% of DMSO. Substances which have an effect of >50% on the liberation of GAG under these conditions (this corresponds to <50% of the control in the Assay Explorer) are tested in a concentration/effect relationship. The compounds here are investigated in the following concentrations: 30 μM, 10 μM, 3 μM, 1 μM, 0.3 μM, 0.1 μM, 0.03 μM, 0.01 μM.
# The positive control used is pepstatin A with a concentration of 0.01 μM. The assay window is defined by the control (pH 5.5), defined as 0% effect, and the control pH 5.5+0.01 μM pepstatin A, defined as 100% effect. After incubation for 3 days, the cell culture supernatants are collected and stored at −20° C. or measured directly. The amount of liberated GAG is measured photometrically.
# The effect (1 value) of the respective substance in % based on the positive control (pH 5.5+0.01 μM pepstatin A) and the negative control (pH 5.5) is reported for concentrations of 1 μM and 100 nM. The value represents the average of 4 replicants. In the determination of a concentration/effect relationship, an IC50 value is reported to the database (Assay Explorer).
# The cell culture supernatants (200 μl) are either measured directly or stored at −20° C. […] A rapid colour reaction occurs, which is subsequently measured at 633 nm using a plate reader (for example Envision). […]
# [2] = target: T1, recombinant human renin (Homo sapiens, UniProt P00797); test: In-vitro fluorescence assay for identification of renin-inhibitory activity; format: biochemical; details: recombinant human renin 10 nM, FRET substrate 5 μM, pH 7.2; read-out: Renin selectivity IC50
# T1 construct: purchased Proteos, Kalamazoo, Mich
# T1 sequence (P00797 67-406): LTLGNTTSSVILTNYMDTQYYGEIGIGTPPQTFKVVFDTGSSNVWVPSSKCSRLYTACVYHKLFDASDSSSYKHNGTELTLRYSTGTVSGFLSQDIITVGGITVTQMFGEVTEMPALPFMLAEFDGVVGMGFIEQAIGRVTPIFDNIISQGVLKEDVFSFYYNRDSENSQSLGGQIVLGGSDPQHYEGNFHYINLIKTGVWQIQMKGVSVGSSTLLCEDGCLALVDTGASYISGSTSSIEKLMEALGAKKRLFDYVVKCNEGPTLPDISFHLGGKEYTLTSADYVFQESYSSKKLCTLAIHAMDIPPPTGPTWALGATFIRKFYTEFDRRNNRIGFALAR
# Procedure: EXAMPLE 8: IN-VITRO FLUORESCENCE ASSAY FOR IDENTIFICATION OF RENIN-INHIBITORY ACTIVITY
# In order to identify modulators of renin activity, a continuous enzymatic test was carried out with a synthetic peptide which carries a fluorescent group Edans (=(5-(aminoethyl)aminonaphthalenesulfonate) which is quenched by energy transfer from a Dabcyl (4′-dimethylaminoazobenzene-4-carboxylate) group on the same molecule, in Greiner 384-well microtitre plates. Cleavage of the peptidic substrate by renin causes an increase in the fluorescence intensity. In order to determine the efficacy of substances, the time-dependent increase in the fluorescence intensity in the presence of the substance was compared with the time-dependent increase in fluorescence in the absence of substances. The reference substance used was renin inhibitor 2 (Z-Arg-Arg-Pro-Phe-His-Sta-Ile-His N-Boc-Lys methyl ester Z) (Sigma-Aldrich). The substrate used was renin FRET substrate I (DABCYL-g-Abu-Ile-His-Pro-Phe-His-Leu-Val-Ile-His-Thr-EDANS) (Anaspec, Fremont Calif.). The enzyme employed was recombinant human renin (Pro-teos, Kalamazoo, Mich.) in a final concentration of 10 nM. The test was carried out in 50 mM Mops buffer, 1.5% (v/v) of DMSO, 0.1% (w/v) of Igepal®, pH 7.2, 0.5% (w/v) of BSA. 2 μl of each substance solution with serially diluted substance concentration were added to in each case 4 μl of renin solution and incubated at room temperature for 15 min. The reaction was started by addition of 4 μl of substrate solution (final concentration 5 μM). After carrying out a starting-point fluorescence measurement (excitation wavelength 340 nm/emission wavelength 495 nm) using an Envision multilabel reader (Perkin Elmer), the reaction was incubated at 37° C. for 60 min. The amount of peptide fragment cleaved off during the reaction time was subsequently measured by determination of the increase in the fluorescence intensity at 495 nm (excitation wavelength 340 nm).
# Result: all compounds measured have an IC50 of the renin selectivity of >30 μM (see Table 2 in Example 1).
IC50 [2] [nM],Compound,IC50 [1] [nM]
,"CC[C@H](C)[C@H](NC(=O)C[C@H](O)[C@H](Cc1ccccc1)NC(=O)[C@@H](NC(=O)CCc1ccccc1)C(C)C)C(=O)N[C@H](C(=O)O)C(C)C [Compound 4, (S)-2-((2S,3S)-2-{(3S,4S)-3-hydroxy-4-[(S)-3-methyl-2-(3-phenyl-propionylamino)butyrylamino]-5-phenylpentanoylamino}-3-methylpentanoylamino)-3-methylbutyric acid]",60.6
20000,"CC[C@H](C)[C@H](NC(=O)C[C@H](O)[C@H](Cc1ccccc1)NC(=O)[C@@H](NC(=O)CCCc1ccccc1)C(C)C)C(=O)N[C@H](C(=O)O)C(C)C [Compound 5, (S)-2-((2S,3S)-2-{(3S,4S)-3-hydroxy-4-[(S)-3-methyl-2-(4-phenyl-butyrylamino)butyrylamino]-5-phenylpentanoylamino}-3-methylpentanoylamino)-3-methylbutyric acid]",989
,"CC[C@H](C)[C@H](NC(=O)C[C@H](O)[C@H](Cc1ccccc1)NC(=O)[C@@H](NC(=O)Cc1cccc(OC)c1)C(C)C)C(=O)N[C@H](C(=O)O)C(C)C [Compound 20, (S)-2-[(2S,3S)-2-((3S,4S)-3-hydroxy-4-{(S)-2-[2-(3-methoxyphenyl)-acetylamino]-3-methylbutyrylamino}-5-phenylpentanoylamino)-3-methylpentanoylamino]-3-methylbutyric acid]",47.9
